ChEMBL document CHEMBL1136805, “Nitroaryl phosphoramides as novel prodrugs for E. coli nitroreductase activation in enzyme prodrug therapy” (J Med Chem, 2003)

Experiments:
SK-OV-3 [1] = assay: Inhibitory activity against SKOV3 (human ovarian carcinoma) cell line without Escherichia coli nitroreductase combination after 18 hours drug exposure; type: functional, cell-based
[2] = Inhibitory activity against V79 (chinese hamster fibroblast) cell line with Escherichia coli nitroreductase combination after 72 hours drug exposure; type: functional, cell-based, Cricetulus griseus
[3] = Inhibitory activity against V79 (chinese hamster fibroblast) cell line without Escherichia coli nitroreductase combination after 1 hour drug exposure; type: functional, cell-based, Cricetulus griseus
[4] = Inhibitory activity against V79 (chinese hamster fibroblast) cell line without Escherichia coli nitroreductase combination after 72 hours drug exposure; type: functional, cell-based, Cricetulus griseus
[5] = Inhibitory activity against V79 (chinese hamster fibroblast) cell line with Escherichia coli nitroreductase combination after 1 hour drug exposure; type: functional, cell-based, Cricetulus griseus
[6] = Ratio of the activity in absence to that of presence of Escherichia coli nitroreductase in SKOV3 (human ovarian carcinoma) cell line; type: functional
SK-OV-3 [7] = assay: Inhibitory activity against SKOV3 (human ovarian carcinoma) cell line with Escherichia coli nitroreductase combination after 18 hours drug exposure; type: functional, cell-based; details: SK-OV-3, 18 h
[8] = Ratio of Kcat to that of Km was determined; type: ADME
[9] = Kcat was determined; type: ADME
SK-OV-3 [10] = assay: Inhibitory activity against SKOV3 (human ovarian carcinoma) cell line infected at lower infection rate of 10 pfu/cell with Escherichia coli nitroreductase combination after 18 hours drug exposure; type: functional, cell-based; details: SK-OV-3, 18 h
[11] = Ratio of the activity in absence to that of presence of the Escherichia coli nitroreductase in SKOV3 (human ovarian carcinoma) cell line infected at lower infection rate of 10 pfu/cell; type: functional
[12] = Ratio of the activity in absence to that of presence of Escherichia coli nitroreductase V79 (chinese hamster fibroblast) cell line; type: functional

O=[N+]([O-])c1cccc([C@H]2CCNP(=O)(N(CCCl)CCCl)O2)c1 (stereo partly drawn)
IC50 (SK-OV-3 [1]; Homo sapiens, SK-OV-3, 18 h): 680 µM
IC50 [2]: 29 nM
IC50 [3]: > 100 µM
IC50 [4]: 832 µM
IC50 [5]: 340 nM
Ratio [6]: 145
IC50 (SK-OV-3 [7]): 4.7 µM

NC(=O)c1cc(N2CC2)c([N+](=O)[O-])cc1[N+](=O)[O-] [TRETAZICAR]
1/2Kcat/Km [8]: 3746 M⁻¹ s⁻¹
k cat [9]: 6.6 s⁻¹
IC50 (SK-OV-3 [10]): 52 µM
IC50 (SK-OV-3 [1]; Homo sapiens, SK-OV-3, 18 h): > 1000 µM
IC50 (SK-OV-3 [1]; sk-ov-3): 625 µM
IC50 [2]: 36 nM
IC50 [3]: > 100 µM
IC50 [4]: 254 µM
IC50 [5]: 310 nM
Ratio [6]: >213
Ratio [11]: 12
IC50 (SK-OV-3 [7]): 4.7 µM

O=[N+]([O-])c1ccc2c(c1)NP(=O)(N(CCCl)CCCl)OC2 (stereo not drawn)
IC50 (SK-OV-3 [1]; Homo sapiens, SK-OV-3, 18 h): 550 µM
IC50 [2]: 3000 nM
IC50 [4]: > 100 µM
Ratio [12]: >33
Ratio [6]: 10
IC50 (SK-OV-3 [7]): 55 µM

NP(=O)(OCc1ccc([N+](=O)[O-])cc1)N(CCCl)CCCl (stereo not drawn)
k cat/Km [8]: 71949 M⁻¹ s⁻¹
k cat [9]: 14 s⁻¹
IC50 (SK-OV-3 [10]): 6.2 µM
IC50 (SK-OV-3 [1]; Homo sapiens, SK-OV-3, 18 h): > 10000 µM
IC50 [2]: 0.4 nM
IC50 [3]: > 100 µM
IC50 [4]: 67 µM
IC50 [5]: 10 nM
Ratio [6]: >833
Ratio [11]: >161
IC50 (SK-OV-3 [7]): 1.2 µM

O=[N+]([O-])c1cccc([C@@H]2CCNP(=O)(N(CCCl)CCCl)O2)c1 (stereo partly drawn)
IC50 (SK-OV-3 [1]; Homo sapiens, SK-OV-3, 18 h): > 1000 µM
IC50 [2]: 27 nM
IC50 [3]: > 100 µM
IC50 [4]: 608 µM
IC50 [5]: 170 nM
Ratio [6]: >200
IC50 (SK-OV-3 [7]): 5 µM
